#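 Cultured in 96-well plates, cells were exposed to test compound for 48 hours across five concentrations. GI50 = concentration required for 50% inhibition of growth.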 Calls of active or inactive are those of the source. No stated cut-off is given here; in the data, active = GI50 up to about 1.1 µM and inactive = higher.
# What was measured:
# Experiment in all cases: NCI anticancer screen, dose series, 48 h
# SF-295 = system: SF-295
# NCI/ADR-RES = system: NCI/ADR-RES
# UO-31 = system: UO-31
# SK-MEL-5 = system: SK-MEL-5
# SNB-75 = system: SNB-75
# 786-0 = system: 786-0
# SN12C = system: SN12C
# HT-29 = system: HT-29
# OVCAR-5 = system: OVCAR-5
# MDA-N = system: MDA-N
# OVCAR-8 = system: OVCAR-8
# HL-60 = system: HL-60
# U-251 = system: U-251
# RPMI-8226 = system: RPMI-8226
# OVCAR-3 = system: OVCAR-3
# SW-620 = system: SW-620
# HOP-62 = system: HOP-62
# DU-145 = system: DU-145
# K562 = system: K562
# HCT-116 = system: HCT-116
# CCRF-CEM = system: CCRF-CEM
# SK-OV-3 = system: SK-OV-3
# MOLT-4 = system: MOLT-4
# UACC-257 = system: UACC-257
# HCT-15 = system: HCT-15
# M14 = system: M14
# SNB-19 = system: SNB-19
# BT-549 = system: BT-549
# MCF7 = system: MCF7
# KM12 = system: KM12
# HCC 2998 = system: HCC 2998
# A549 = system: A549
# IGROV-1 = system: IGROV-1
# SF-268 = system: SF-268
# ACHN = system: ACHN
# NCI-H226 = system: NCI-H226
# MDA-MB-435 = system: MDA-MB-435
# NCI-H23 = system: NCI-H23
# Malme-3M = system: Malme-3M
# Hs-578T = system: Hs-578T
# SF-539 = system: SF-539
# PC-3 = system: PC-3
# UACC-62 = system: UACC-62
# NCI-H460 = system: NCI-H460
# EKVX = system: EKVX
# T47D = system: T47D
# HOP-92 = system: HOP-92
# CAKI-1 = system: CAKI-1
# RXF 393 = system: RXF 393
# SK-MEL-28 = system: SK-MEL-28
# NCI-H522 = system: NCI-H522
# LOX IMVI = system: LOX IMVI
# TK-10 = system: TK-10
# A498 = system: A498
# OVCAR-4 = system: OVCAR-4
# COLO 205 = system: COLO 205
# SR = system: SR
# SK-MEL-2 = system: SK-MEL-2
# MDA-MB-231 = system: MDA-MB-231
structure (smiles),measurement,setting,value
COc1cc(COC(=O)N(C)[C@@H](Cc2ccccc2)C(=O)O)c([N+](=O)[O-])cc1OC,GI50,SF-295,> 100 µM (inactive)
same,GI50,NCI/ADR-RES,> 100 µM (inactive)
same,GI50,UO-31,> 100 µM (inactive)
same,GI50,SK-MEL-5,> 100 µM (inactive)
same,GI50,SNB-75,> 100 µM (inactive)
same,GI50,786-0,> 100 µM (inactive)
same,GI50,SN12C,> 100 µM (inactive)
same,GI50,HT-29,> 100 µM (inactive)
same,GI50,OVCAR-5,> 100 µM (inactive)
same,GI50,MDA-N,> 100 µM (inactive)
same,GI50,OVCAR-8,> 100 µM (inactive)
same,GI50,HL-60,> 100 µM (inactive)
same,GI50,U-251,> 100 µM (inactive)
same,GI50,RPMI-8226,> 100 µM (inactive)
same,GI50,OVCAR-3,> 100 µM (inactive)
same,GI50,SW-620,> 100 µM (inactive)
same,GI50,HOP-62,> 100 µM (inactive)
same,GI50,DU-145,> 100 µM (inactive)
same,GI50,K562,> 100 µM (inactive)
same,GI50,HCT-116,> 100 µM (inactive)
same,GI50,CCRF-CEM,> 100 µM (inactive)
same,GI50,SK-OV-3,> 100 µM (inactive)
same,GI50,MOLT-4,> 100 µM (inactive)
same,GI50,UACC-257,> 100 µM (inactive)
same,GI50,HCT-15,> 100 µM
same,GI50,M14,> 100 µM (inactive)
same,GI50,SNB-19,> 100 µM (inactive)
same,GI50,BT-549,> 100 µM (inactive)
same,GI50,MCF7,> 100 µM (inactive)
same,GI50,KM12,> 100 µM (inactive)
same,GI50,HCC 2998,> 100 µM (inactive)
same,GI50,A549,> 100 µM (inactive)
same,GI50,IGROV-1,> 100 µM (inactive)
same,GI50,SF-268,> 100 µM (inactive)
same,GI50,ACHN,> 100 µM (inactive)
same,GI50,NCI-H226,> 100 µM (inactive)
same,GI50,MDA-MB-435,> 100 µM (inactive)
same,GI50,NCI-H23,> 100 µM (inactive)
same,GI50,Malme-3M,> 100 µM (inactive)
same,GI50,Hs-578T,> 100 µM (inactive)
same,GI50,SF-539,> 100 µM (inactive)
same,GI50,PC-3,> 100 µM (inactive)
same,GI50,UACC-62,> 100 µM (inactive)
same,GI50,NCI-H460,> 100 µM (inactive)
same,GI50,EKVX,> 100 µM (inactive)
same,GI50,T47D,> 100 µM (inactive)
same,GI50,HOP-92,> 100 µM (inactive)
Cc1c(C(=O)OCc2ccccc2)[n+]([O-])c2cc(F)c(F)cc2[n+]1[O-],GI50,SF-295,2.16 µM (inactive)
same,GI50,NCI/ADR-RES,3.22 µM (inactive)
same,GI50,UO-31,1.79 µM (inactive)
same,GI50,SK-MEL-5,0.698 µM (active)
same,GI50,SNB-75,2.7 µM (inactive)
same,GI50,786-0,4.58 µM (inactive)
same,GI50,SN12C,1.94 µM (inactive)
same,GI50,CAKI-1,2.15 µM (inactive)
same,GI50,HT-29,2.01 µM (inactive)
same,GI50,OVCAR-5,3.72 µM (inactive)
same,GI50,RXF 393,2.38 µM (inactive)
same,GI50,OVCAR-8,2.07 µM (inactive)
same,GI50,SK-MEL-28,2.06 µM (inactive)
same,GI50,HL-60,1.06 µM (active)
same,GI50,NCI-H522,2 µM (inactive)
same,GI50,U-251,2.3 µM (inactive)
same,GI50,RPMI-8226,4.41 µM (inactive)
same,GI50,LOX IMVI,0.421 µM (active)
same,GI50,OVCAR-3,1.01 µM (active)
same,GI50,SW-620,0.64 µM (active)
same,GI50,HOP-62,4.67 µM (inactive)
same,GI50,DU-145,2.41 µM (inactive)
same,GI50,K562,0.264 µM (active)
same,GI50,TK-10,16.3 µM (inactive)
same,GI50,HCT-116,1.63 µM (inactive)
same,GI50,CCRF-CEM,0.944 µM (active)
same,GI50,MOLT-4,1.96 µM (inactive)
same,GI50,UACC-257,2.19 µM (inactive)
same,GI50,HCT-15,0.583 µM
same,GI50,M14,1.77 µM (inactive)
same,GI50,SNB-19,2.08 µM (inactive)
same,GI50,BT-549,1.83 µM (inactive)
same,GI50,A498,1.42 µM (inactive)
same,GI50,MCF7,2.31 µM (inactive)
same,GI50,KM12,5.68 µM (inactive)
same,GI50,HCC 2998,1.9 µM (inactive)
same,GI50,A549,3.2 µM (inactive)
same,GI50,IGROV-1,1.73 µM (inactive)
same,GI50,SF-268,1.25 µM (inactive)
same,GI50,ACHN,1.94 µM (inactive)
same,GI50,OVCAR-4,1.77 µM (inactive)
same,GI50,COLO 205,3.61 µM (inactive)
same,GI50,NCI-H226,2.7 µM (inactive)
same,GI50,MDA-MB-435,2.15 µM (inactive)
same,GI50,NCI-H23,2.37 µM (inactive)
same,GI50,Malme-3M,1.99 µM (inactive)
same,GI50,Hs-578T,0.306 µM (active)
same,GI50,SF-539,2.52 µM (inactive)
same,GI50,PC-3,2.52 µM (inactive)
same,GI50,UACC-62,2.11 µM (inactive)
same,GI50,NCI-H460,2.46 µM (inactive)
same,GI50,SR,0.877 µM (active)
same,GI50,EKVX,3.26 µM (inactive)
same,GI50,SK-MEL-2,1.67 µM (inactive)
same,GI50,MDA-MB-231,1.8 µM (inactive)
same,GI50,T47D,1.51 µM (inactive)
same,GI50,HOP-92,2.21 µM (inactive)
NNC(=S)N/N=C(/C(=O)Nc1ccc(Cl)c(Cl)c1)C(C1OC(=O)c2ccccc21)[N+](=O)[O-] (stereo not given),GI50,SF-295,> 100 µM (inactive)
same,GI50,NCI/ADR-RES,> 100 µM (inactive)
same,GI50,UO-31,> 100 µM (inactive)
same,GI50,SK-MEL-5,> 100 µM (inactive)
same,GI50,SNB-75,> 100 µM (inactive)
same,GI50,786-0,> 100 µM (inactive)
same,GI50,SN12C,> 100 µM (inactive)
same,GI50,CAKI-1,> 100 µM (inactive)
same,GI50,HT-29,> 100 µM (inactive)
same,GI50,OVCAR-5,> 100 µM (inactive)
same,GI50,RXF 393,> 100 µM (inactive)
same,GI50,MDA-N,> 100 µM (inactive)
same,GI50,OVCAR-8,> 100 µM (inactive)
same,GI50,SK-MEL-28,> 100 µM (inactive)
same,GI50,HL-60,19.9 µM (inactive)
same,GI50,NCI-H522,> 100 µM (inactive)
same,GI50,U-251,> 100 µM (inactive)
same,GI50,RPMI-8226,> 100 µM (inactive)
same,GI50,LOX IMVI,> 100 µM (inactive)
same,GI50,OVCAR-3,> 100 µM (inactive)
same,GI50,SW-620,> 100 µM (inactive)
same,GI50,HOP-62,> 100 µM (inactive)
same,GI50,K562,> 100 µM (inactive)
same,GI50,TK-10,> 100 µM (inactive)
same,GI50,HCT-116,> 100 µM (inactive)
same,GI50,CCRF-CEM,52.7 µM (inactive)
same,GI50,SK-OV-3,> 100 µM (inactive)
same,GI50,MOLT-4,> 100 µM (inactive)
same,GI50,UACC-257,> 100 µM (inactive)
same,GI50,HCT-15,> 100 µM
same,GI50,M14,> 100 µM (inactive)
same,GI50,BT-549,> 100 µM (inactive)
same,GI50,A498,> 100 µM (inactive)
same,GI50,MCF7,> 100 µM (inactive)
same,GI50,KM12,> 100 µM (inactive)
same,GI50,HCC 2998,> 100 µM (inactive)
same,GI50,A549,> 100 µM (inactive)
same,GI50,IGROV-1,54.5 µM (inactive)
same,GI50,SF-268,> 100 µM (inactive)
same,GI50,ACHN,> 100 µM (inactive)
same,GI50,OVCAR-4,> 100 µM (inactive)
same,GI50,NCI-H226,> 100 µM (inactive)
same,GI50,MDA-MB-435,> 100 µM (inactive)
same,GI50,NCI-H23,> 100 µM (inactive)
same,GI50,Malme-3M,> 100 µM (inactive)
same,GI50,Hs-578T,> 100 µM (inactive)
same,GI50,SF-539,> 100 µM (inactive)
same,GI50,PC-3,> 100 µM (inactive)
same,GI50,UACC-62,> 100 µM (inactive)
same,GI50,NCI-H460,> 100 µM (inactive)
same,GI50,SR,> 10 µM (inactive)
same,GI50,EKVX,> 100 µM (inactive)
same,GI50,SK-MEL-2,> 100 µM (inactive)
same,GI50,MDA-MB-231,> 100 µM (inactive)
same,GI50,T47D,> 100 µM (inactive)
same,GI50,HOP-92,86.9 µM (inactive)

# Source: ChEMBL document CHEMBL1201862, “PubChem BioAssay data set” (2004)
